Drawing on the NIST ThermoML archive (doi:10.1016/j.jct.2017.11.017), this text covers activity coefficient for 24 compounds.

± gives the expanded uncertainty stated by the source.

A short description of the series: activity coefficient (dimensionless); of the first substance listed, at infinite dilution; xn = mol fraction of the nth substance listed. Particulars: 101.33 kPa, Liquid, Chromatography, x1 = 0.

As to `CCOC(C)=O` [ethyl acetate] + C[n+]1ccn(CCCO)c1.N#CN=C=[N-], the activity coefficient is, setting by setting: (318.15 K) 5.72 ± 0.39; (328.15 K) 5.95 ± 0.41; (338.15 K) 6.18 ± 0.42; (348.15 K) 6.36 ± 0.43; (358.15 K) 6.61 ± 0.45; (368.15 K) 6.86 ± 0.47.

Turning to `CCc1ccccc1` [ethylbenzene] + C[N+]1(CCCO)CCOCC1.N#C[N-]C#N, the activity coefficient by setting is: (318.15 K) 26.4 ± 1.8; (328.15 K) 26.3 ± 1.8; (338.15 K) 26.3 ± 1.8; (348.15 K) 26.2 ± 1.8; (358.15 K) 26.2 ± 1.8; (368.15 K) 26.2 ± 1.8.

Turning to `CCc1ccccc1` [ethylbenzene] + C[n+]1ccn(CCCO)c1.N#CN=C=[N-], the activity coefficient (318.15 K) worked out at 14.6 ± 1; the activity coefficient (328.15 K) came to 14.9 ± 1; the activity coefficient (338.15 K) was found to be 15.3 ± 1; the activity coefficient (348.15 K) was found to be 15.5 ± 1.1; the activity coefficient (358.15 K) stood at 15.9 ± 1.1; the activity coefficient (368.15 K) came out at 16.1 ± 1.1.

As for `CCCCCCC` [heptane] + C[N+]1(CCCO)CCOCC1.N#C[N-]C#N, the activity coefficient (298.15 K) came to 1540 ± 110 and the activity coefficient (308.15 K) came to 1290 ± 89.

For the compound `CCCCCCC` [heptane] + C[n+]1ccn(CCCO)c1.N#CN=C=[N-], the activity coefficient came out at 562 ± 39 (298.15 K); 504 ± 35 (308.15 K); 447 ± 31 (318.15 K); 402 ± 28 (328.15 K); 366 ± 25 (338.15 K); 334 ± 23 (348.15 K). Also, the activity coefficient (358.15 K) amounted to 306 ± 21.

With `C=CCCCC` [hex-1-ene] + C[n+]1ccn(CCCO)c1.N#CN=C=[N-], the activity coefficient reads like this: (298.15 K) 123 ± 8; (308.15 K) 116 ± 8; (318.15 K) 109 ± 7; (328.15 K) 102 ± 7; (338.15 K) 97.5 ± 6.7; (348.15 K) 92.5 ± 6.3. Further, the activity coefficient (358.15 K) was 89 ± 6.1.

On to `CCCCCC` [hexane] + C[n+]1ccn(CCCO)c1.N#CN=C=[N-], for which the activity coefficient is 357 ± 25 (298.15 K); 319 ± 22 (308.15 K); 286 ± 20 (318.15 K); 257 ± 18 (328.15 K); 233 ± 16 (338.15 K).

Regarding `CC(C)c1ccccc1` [isopropylbenzene] + C[N+]1(CCCO)CCOCC1.N#C[N-]C#N, the activity coefficient runs as follows: (318.15 K) 52.5 ± 3.6; (328.15 K) 51.2 ± 3.5; (338.15 K) 50.3 ± 3.4; (348.15 K) 49.2 ± 3.4; (358.15 K) 48.4 ± 3.3; (368.15 K) 47.5 ± 3.3.

Take `CC(C)c1ccccc1` [isopropylbenzene] + C[n+]1ccn(CCCO)c1.N#CN=C=[N-]: the activity coefficient was 25.8 ± 1.8 (318.15 K); 26.2 ± 1.8 (328.15 K); 26.6 ± 1.8 (338.15 K); 26.8 ± 1.8 (348.15 K); 27.1 ± 1.9 (358.15 K); 27.4 ± 1.9 (368.15 K).

Turning to `CO` [methanol] + C[N+]1(CCCO)CCOCC1.N#C[N-]C#N, the activity coefficient by setting is: (318.15 K) 0.753 ± 0.05; (328.15 K) 0.763 ± 0.05; (338.15 K) 0.771 ± 0.05; (348.15 K) 0.778 ± 0.051; (358.15 K) 0.788 ± 0.051; (368.15 K) 0.791 ± 0.051.

In the case of `CO` [methanol] + C[n+]1ccn(CCCO)c1.N#CN=C=[N-], the activity coefficient stood at 0.63 ± 0.04 (318.15 K); 0.64 ± 0.04 (328.15 K); 0.654 ± 0.045 (338.15 K); 0.66 ± 0.05 (348.15 K); 0.679 ± 0.046 (358.15 K); 0.69 ± 0.05 (368.15 K).

For `CCCC(=O)OC` [methyl butanoate] + C[N+]1(CCCO)CCOCC1.N#C[N-]C#N, the activity coefficient is, setting by setting: (318.15 K) 15.8 ± 1.1; (328.15 K) 15.9 ± 1.1; (338.15 K) 16.1 ± 1.1; (348.15 K) 16.2 ± 1.1; (358.15 K) 16.3 ± 1.1; (368.15 K) 16.5 ± 1.1.

Consider `CCCC(=O)OC` [methyl butanoate] + C[n+]1ccn(CCCO)c1.N#CN=C=[N-], for which the activity coefficient runs as follows: (318.15 K) 9.03 ± 0.62; (328.15 K) 9.36 ± 0.64; (338.15 K) 9.67 ± 0.66; (348.15 K) 9.96 ± 0.68; (358.15 K) 10.3 ± 0.7; (368.15 K) 10.6 ± 0.7.

In the case of `COC(C)=O` [methyl ethanoate] + C[N+]1(CCCO)CCOCC1.N#C[N-]C#N, the activity coefficient by setting is: (318.15 K) 4.31 ± 0.29; (328.15 K) 4.41 ± 0.3; (338.15 K) 4.54 ± 0.31; (348.15 K) 4.64 ± 0.32; (358.15 K) 4.77 ± 0.33; (368.15 K) 4.89 ± 0.33.

In the case of `COC(C)=O` [methyl ethanoate] + C[n+]1ccn(CCCO)c1.N#CN=C=[N-], the activity coefficient amounted to 3.07 ± 0.21 (318.15 K); 3.21 ± 0.22 (328.15 K); 3.35 ± 0.23 (338.15 K); 3.5 ± 0.24 (348.15 K); 3.64 ± 0.25 (358.15 K); 3.8 ± 0.26 (368.15 K).

Regarding `CCC(=O)OC` [methyl propanoate] + C[N+]1(CCCO)CCOCC1.N#C[N-]C#N, the activity coefficient (318.15 K) was 8.18 ± 0.56; the activity coefficient (328.15 K) worked out at 8.35 ± 0.57; the activity coefficient (338.15 K) came to 8.51 ± 0.58; the activity coefficient (348.15 K) was 8.7 ± 0.59; the activity coefficient (358.15 K) amounted to 8.81 ± 0.6; the activity coefficient (368.15 K) was 9.01 ± 0.61.

As for `CCC(=O)OC` [methyl propanoate] + C[n+]1ccn(CCCO)c1.N#CN=C=[N-], the activity coefficient runs as follows: (318.15 K) 5.29 ± 0.36; (328.15 K) 5.48 ± 0.37; (338.15 K) 5.73 ± 0.39; (348.15 K) 5.92 ± 0.4; (358.15 K) 6.14 ± 0.42; (368.15 K) 6.34 ± 0.43.

On to `CC1CCCCC1` [methylcyclohexane] + C[N+]1(CCCO)CCOCC1.N#C[N-]C#N, for which the activity coefficient (298.15 K) was found to be 865 ± 60; the activity coefficient (308.15 K) is 654 ± 45; the activity coefficient (318.15 K) was 508 ± 35; the activity coefficient (328.15 K) stood at 404 ± 28; the activity coefficient (338.15 K) amounted to 321 ± 22.

On to `CC1CCCCC1` [methylcyclohexane] + C[n+]1ccn(CCCO)c1.N#CN=C=[N-], for which the activity coefficient runs as follows: (298.15 K) 207 ± 14; (308.15 K) 187 ± 13; (318.15 K) 169 ± 12; (328.15 K) 154 ± 11; (338.15 K) 141 ± 10; (348.15 K) 131 ± 9. Further, where the note is “358.15 K”, the activity coefficient amounted to 121 ± 8.

Consider `CCCCCCCCC` [nonane] + C[N+]1(CCCO)CCOCC1.N#C[N-]C#N, for which the activity coefficient runs as follows: (308.15 K) 2260 ± 160; (318.15 K) 1870 ± 130; (328.15 K) 1570 ± 110; (338.15 K) 1340 ± 92; (348.15 K) 1160 ± 80; (358.15 K) 994 ± 69. Also, the activity coefficient (368.15 K) is 867 ± 60.

For `CCCCCCCCC` [nonane] + C[n+]1ccn(CCCO)c1.N#CN=C=[N-], the activity coefficient turned out to be 1360 ± 94 (298.15 K); 1200 ± 83 (308.15 K); 1070 ± 74 (318.15 K); 955 ± 66 (328.15 K); 863 ± 59 (338.15 K); 780 ± 54 (348.15 K). Also, under “358.15 K”, the activity coefficient worked out at 722 ± 50.

Turning to `C=CCCCCCC` [oct-1-ene] + C[N+]1(CCCO)CCOCC1.N#C[N-]C#N, the activity coefficient (298.15 K) came out at 1170 ± 81; the activity coefficient (308.15 K) turned out to be 937 ± 65; the activity coefficient (318.15 K) worked out at 764 ± 53; the activity coefficient (328.15 K) was found to be 635 ± 44; the activity coefficient (338.15 K) turned out to be 534 ± 37; the activity coefficient (348.15 K) came out at 453 ± 31.

As for `C=CCCCCCC` [oct-1-ene] + C[n+]1ccn(CCCO)c1.N#CN=C=[N-], the activity coefficient (298.15 K) stood at 358 ± 25; the activity coefficient (308.15 K) came to 331 ± 23; the activity coefficient (318.15 K) worked out at 305 ± 21; the activity coefficient (328.15 K) was 282 ± 19; the activity coefficient (338.15 K) is 263 ± 18; the activity coefficient (348.15 K) was 245 ± 17. Further, under “358.15 K”, the activity coefficient amounted to 234 ± 16.

For `CCCCCCCC` [octane] + C[N+]1(CCCO)CCOCC1.N#C[N-]C#N, the activity coefficient runs as follows: (298.15 K) 2070 ± 140; (308.15 K) 1730 ± 120; (318.15 K) 1460 ± 100; (328.15 K) 1260 ± 87; (338.15 K) 1090 ± 75.
